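Tested at 5 concentrations; 48 h exposure; 96-well plates; endpoints linearly interpolated, else capped at highest concentration. The concentration for full growth arrest is given as TGI.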
Columns and labels:
Assay in all cases: DTP human tumour cell line panel, 48 h
HOP-62 NSCLC = tested on: HOP-62 NSCLC
KM12 colon = tested on: KM12 colon
LOX IMVI melanoma = tested on: LOX IMVI melanoma
MDA-N = tested on: MDA-N
NCI-H460 lung = tested on: NCI-H460 lung
NCI-H522 lung = tested on: NCI-H522 lung
OVCAR-3 ovarian = tested on: OVCAR-3 ovarian
SF-539 CNS = tested on: SF-539 CNS
SNB-75 CNS = tested on: SNB-75 CNS
UO-31 renal = tested on: UO-31 renal

Row | Compound | TGI (HOP-62 NSCLC) [µM] | TGI (KM12 colon) [µM] | TGI (LOX IMVI melanoma) [µM] | TGI (MDA-N) [µM] | TGI (NCI-H460 lung) [µM] | TGI (NCI-H522 lung) [µM] | TGI (OVCAR-3 ovarian) [µM] | TGI (SF-539 CNS) [µM] | TGI (SNB-75 CNS) [µM] | TGI (UO-31 renal) [µM]
1 | CCn1c(SCc2nnc(Nc3ccccc3)s2)nc2ccccc2c1=O | 12.5 | > 48.9 | 25.4 | > 52.1 | 4.77 | 7.63 | 41.2 | 19.3 | 14.2 | 12.1
2 | O=C(O)Cn1ncn(NC(=O)Cc2ccccc2)c1=S | > 10 | > 10 | > 10 | > 10 | > 10 | > 10 | > 10 | > 10 | > 10 | > 10
3 | CN(c1ccc(Cl)cc1)S(=O)(=O)c1ccccc1 | > 100 | > 100 | > 100 | > 100 | > 100 | > 100 | > 100 | > 100 | > 100 | > 100

— PubChem BioAssay (NCI)
